Patent publication US9993001B2, “Herbicidal composition” (ISHIHARA SANGYO KAISHA, LTD., priority 2014, dated 2018)

Tests used:
Format in all cases: in vivo
[1] = tested on: barnyardgrass (Echinochloa crus-qalli L.); assay: Test Example 4: soybean field, soil treatment, metobromuron + trifluralin; details: 890 g/ha, soil treatment, soybean field, 50th day after treatment, read-out: Growth inhibition rate of barnyardgrass (%) Measured value
Source text: (§1) When the herbicidal activity in a case where two active ingredients are combined, is larger than the simple sum of the respective herbicidal activities of the two active ingredients (the expected activity), it is called a synergistic effect. The activity expected by the combination of two active ingredients can be calculated as follows (Colby S. R., “Weed”, vol. 15, p. 20-22, 1967). E=α+β−(α×β[…]) where α: growth inhibition rate when treated with x (g/ha) of herbicide X, • β: growth inhibition rate when treated with y (g/ha) of herbicide Y, • E: growth inhibition rate expected when treated with x (g/ha) of herbicide X and y (g/ha) of herbicide Y.
(§2) On the 19th day after treatment, the state of growth of barnyardgrass was visually observed and evaluated in accordance with the following standards. The growth inhibition rate (%) [measured value] and the growth inhibition rate (%) [calculated value] calculated by the Colby's method, are shown in Table 2.
(§3) Growth inhibition rate (%)=inhibition rate) (%) of 0 (equivalent to the non-treated area) to 100 (complete kill) […]
On the 50th day after treatment, the state of growth of barnyardgrass (Echinochloa crus-qalli L.) which occurred naturally, was visually observed and evaluated in the same manner as in Test Example 1.

[2] = tested on: Oriental lady's thumb (Persicaria longiseta); assay: Test Example 7: common bean field, soil treatment, metobromuron + trifluralin; details: 1335 g/ha, soil treatment, common bean field, 49th day after treatment, read-out: Growth inhibition rate of Oriental lady's thumb (%) Measured value
Source text: as §1, §2, §3
On the 49th day after treatment, the state of growth of Oriental lady's thumb (Persicaria longiseta) which occurred naturally, was visually observed and evaluated in the same manner as in Test Example 1.

[3] = tested on: common lambsquarters (Chenopodium album L.); assay: Test Example 24: pot, soil treatment, metobromuron + trifluralin; details: soil treatment, pot, 21st day after treatment, read-out: Growth inhibition rate of common lambsquarters (%) Measured value
Source text: as §1, §2
(§4) Growth inhibition rate (%)=inhibition rate) (%) of 0 (equivalent to the non-treated area) to 100 (complete kill)
Soil was put into a 1/300,000 ha pot, and seeds of common lambsquarters (Chenopodium album L.) were sown. On the day after seeding, predetermined amounts of SC containing metobromuron as active ingredient (same as in Test Example 1) and EC containing trifluralin as active ingredient (same as in Test Example 4) were diluted with water corresponding to 1,000 L per hectare and applied for soil treatment.
On the 21st day after treatment, the state of growth of common lambsquarters was visually observed and evaluated in the same manner as in Test Example 1.

[4] = tested on: common chickweed (Stellaria media L.); assay: Test Example 25: pot, soil treatment, metobromuron + trifluralin; details: 445 g/ha, soil treatment, pot, 21st day after treatment, read-out: Growth inhibition rate of common chickweed (%) Measured value
[5] = tested on: barnyardgrass (Echinochloa crus-qalli L.); assay: Test Example 5: adzuki bean field, soil treatment, metobromuron + fluazifop-P-butyl; details: 700 g/ha; soil treatment, adzuki bean field; 39th day after treatment
Source text: as §1, §2, §3
On the 39th day after treatment, the state of growth of barnyardgrass (Echinochloa crus-qalli L.) which occurred naturally, was visually observed and evaluated in the same manner as in Test Example 1.

[6] = tested on: black nightshade (Solanum nigrum L.); assay: Test Example 23: pot, soil treatment, metobromuron + fluazifop-P-butyl; details: 131.25 g/ha; soil treatment, pot; 20th day after treatment
Source text: as §1, §2, §4
Soil was put into a 1/300,000 ha pot, and seeds of black nightshade (Solanum nigrum L.) were sown. […]
On the 20th day after treatment, the state of growth of black nightshade was visually observed and evaluated in the same manner as in Test Example 1.

CCCN(CCC)c1c([N+](=O)[O-])cc(C(F)(F)F)cc1[N+](=O)[O-] [Trifluralin, α,α,α-trifluoro-2,6-dinitro-N,N-dipropyl-p-toluidine]
inhibition at 890 g/ha [1]: 20% | inhibition at 1335 g/ha [2]: 40% | inhibition at 296.7 g/ha ([3]; 296.7 g/ha): 20% | inhibition at 445 g/ha ([3]; 445 g/ha): 15% | inhibition at 667.5 g/ha ([3]; 667.5 g/ha): 48% | inhibition at 445 g/ha [4]: 35%

CCCCOC(=O)[C@@H](C)Oc1ccc(Oc2ccc(C(F)(F)F)cn2)cc1 [Fluazifop-P-butyl, butyl (R)-2-[4-[5-(trifluoromethyl)-2-pyridyloxy]phenoxy] propionate]
Growth inhibition rate of barnyardgrass (%) Measured value [5]: 55% | Growth inhibition rate of black nightshade (%) Measured value [6]: 25%
